Article PMC3724348 (Biochemistry, 2013)
Entries after “also recorded” stand apart in the source; their conditions may differ.

Columns and labels:
[1] = system: VDR target genes IGFBP-3, TRPV6 and CYP24A1 in LNCaP cells; assay: Semi-quantitative real time PCR, VDR target genes in LNCaP cells; assay type: cell-based, human
[2] = system: HL-60 cells; assay: HL60 differentiation assay; assay type: cell-based, human; conditions: 4 days, 1,25(OH)2D3 alone
[3] = system: AR target genes UGT1A1 and PSA in LNCaP cells; assay: Semi-quantitative real time PCR, AR target genes in LNCaP cells; assay type: cell-based, human; conditions: 18 h
[4] = target: interaction between VDR and SRC2–3 (Homo sapiens, UniProt P11473, DEL165-215); assay: HTS FP assay, VDR–SRC2–3 inhibition; assay type: binding; conditions: HTS campaign; Texas Red-labeled SRC2–3
[5] = target: VDR (Homo sapiens, UniProt P11473); assay: VDR ligand competition FP assay; assay type: binding; conditions: with respect to 100% free probe (55 mP) measured in the absence of VDR
[6] = system: SRC2; assay: Isothermal titration calorimetry GW0742–SRC2; assay type: binding
[7] = target: TRβ–SRC2–2 interaction (Homo sapiens, UniProt P10828); assay: FP assay TRβ–SRC2–2 inhibition; assay type: binding
[8] = target: T1, PPARγ–DRIP2 interaction (Homo sapiens, UniProt P37231); assay: FP assay PPARγ–DRIP2; assay type: binding
T1 sequence (P37231 238-503 limits assumed): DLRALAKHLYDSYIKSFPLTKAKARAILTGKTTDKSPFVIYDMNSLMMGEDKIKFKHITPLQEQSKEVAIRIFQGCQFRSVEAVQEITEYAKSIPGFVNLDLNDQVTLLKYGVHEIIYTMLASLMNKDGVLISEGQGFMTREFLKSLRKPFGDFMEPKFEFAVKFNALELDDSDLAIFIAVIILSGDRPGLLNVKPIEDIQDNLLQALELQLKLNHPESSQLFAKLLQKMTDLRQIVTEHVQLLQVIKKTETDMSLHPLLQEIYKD

[9] = target: PPARγ (Homo sapiens, UniProt P37231); assay: One-hybrid luciferase transcription assay in HEK 293T cells; assay type: cell-based
[10] = Cell viability; assay type: cell-based, human; conditions: human
[11] = system: HEK 293T cells; assay: Cell viability; assay type: cell-based, human; conditions: GW0742 18.7 µM; CellTiter-Glo
[12] = target: VDR–SRC2 interaction (Homo sapiens, UniProt P11473, DEL165-215); assay: Western pull-down assay VDR-LBD and SRC2 bearing all three NIDs; assay type: binding
[13] = system: PPARγ target gene ANGPTL4 in LNCaP cells; assay: Semi-quantitative real time PCR, PPARγ target gene in LNCaP cells; assay type: cell-based, human; conditions: 18 h
[14] = system: TR target gene BTG2 in LNCaP cells; assay: Semi-quantitative real time PCR, TR target gene in LNCaP cells; assay type: cell-based, human; conditions: 18 h
[15] = system: HL-60 cells; assay: HL-60 cell death in differentiation assay; assay type: cell-based, human; conditions: 4 days
[16] = target: VDR-SRC2–3 Alexa Fluor 647 interaction (Homo sapiens, UniProt P11473, DEL165-215); assay: VDR–SRC2–3 FP assay in the presence of 1 mM or 100 mM 2-mercaptoethanol; assay type: binding; conditions: small molecules 50 µM; Alexa Fluor 647 SRC2–3
[17] = system: estrogen receptor α; conditions: HTS campaign; ref AID:588513, pubchem; cited from earlier work
[18] = system: glucocorticoid receptor; conditions: HTS campaign; ref AID:588533, pubchem; cited from earlier work
[19] = system: PPARγ; conditions: HTS campaign; ref AID588537, pubchem; cited from earlier work
[20] = system: retinoid X receptor; conditions: HTS campaign; ref AID:588546, pubchem; cited from earlier work
[21] = system: TRβ; conditions: HTS campaign; ref AID:588547, pubchem; cited from earlier work
[22] = system: ANGPTL4 in HT29 colon cancer cells; conditions: GW0742 1 µM; cited from earlier work
[23] = system: HEK293T cells; assay: Toxicity in HEK293T cells; conditions: at a concentration of 45.8 µM; AID:602204
[24] = GW0742 20 µM + 1,25(OH)2D3 10 nM, 18 h

Chain of TRβ–SRC2–2 interaction (P10828 217-461 limits assumed): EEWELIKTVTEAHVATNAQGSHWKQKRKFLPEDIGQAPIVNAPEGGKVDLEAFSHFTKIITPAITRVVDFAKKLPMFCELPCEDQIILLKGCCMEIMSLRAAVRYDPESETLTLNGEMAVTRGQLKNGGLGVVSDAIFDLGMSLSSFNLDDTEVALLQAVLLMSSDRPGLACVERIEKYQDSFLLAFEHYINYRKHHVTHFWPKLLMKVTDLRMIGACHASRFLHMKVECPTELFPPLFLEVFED

Question: For `C=C1/C(=C\C=C2/CCC[C@]3(C)[C@@H]([C@H](C)CCCC(C)(C)O)CC[C@@H]23)C[C@@H](O)C[C@@H]1O` [1,25(OH)2D3, 1,25-dihydroxyvitamin D3], which CYP24A1 expression ([1]; 1,25(OH)2D3 10 nM, 6 hours and 18 hours) is on record?
Answer: Its CYP24A1 expression is “induction; also recorded: moderately upregulated”.

Question: And the IGFBP-3 expression ([1]; 1,25(OH)2D3 10 nM, 18 h)?
Answer: The IGFBP-3 expression was “strongly induced”.

Question: What about the TRPV6 expression ([1]; 1,25(OH)2D3 10 nM, 18 h) of the same molecule?
Answer: The TRPV6 expression was “strongly induced”.

Question: What about the HL-60 cell differentiation [2] of the same molecule?
Answer: The HL-60 cell differentiation was “strong”.

Question: For `C[C@]12CCC(=O)C[C@@H]1CC[C@@H]1[C@@H]2CC[C@]2(C)[C@@H](O)CC[C@@H]12` [DHT, dihydrotestosterone], which UGT1A1 expression ([3]; DHT 10 nM) is on record?
Answer: Its UGT1A1 expression is “upregulated”.

Question: With `Cc1cc(SCc2sc(-c3ccc(C(F)(F)F)c(F)c3)nc2C)ccc1OCC(=O)O` [GW0742] as the molecule, how does the “VDR–SRC2–3 inhibition (FP assay) IC50” value [4] read?
Answer: The value was “inconclusive”.

Question: What about the “extent of inhibition of VDR–ligand binding” value [5] of the same molecule?
Answer: The value was “partial inhibition”.

Question: And the “interaction between GW0742 and SRC2 (ITC)” value [6]?
Answer: The value was “no specific interaction was observed”.

Question: And the IC50 [7]?
Answer: The IC50 was 59.9 ± 9.5 µM.

Question: What about the EC50 [8] of the same molecule?
Answer: The EC50 was 2.6 µM.

Question: What about the IC50 [8] of the same molecule?
Answer: Its IC50 is over 86 µM.

Question: What about the “concentration with significant inhibition between PPARγ-LBD and DRIP2” value ([8]; FP assay) of the same molecule?
Answer: The value was over 86 µM.

Question: And the “concentration with significant PPARγ-mediated transcriptional inhibition” value [9]?
Answer: Its value is over 20 µM.

Question: And the viability at 16 h, 37.5 µM [10]?
Answer: The viability at 16 h, 37.5 µM was 93 ± 3%.

Question: What about the toxicity [11] of the same molecule?
Answer: The toxicity was “no toxicity was observed”.

Question: And the “inhibition of the VDR–SRC2 interaction (pull-down)” value ([12]; in the presence of VDR ligand)?
Answer: The value was “blocked in a dose dependent manner”.

Question: What about the “concentration with significant inhibition of the VDR–SRC2 interaction” value ([12]; residual bands still detected) of the same molecule?
Answer: The value was 80 to 120 µM.

Question: And the “effect on DHT-induced PSA expression” value ([3]; GW0742 20 µM + DHT 10 nM)?
Answer: Its value is “significant inhibitory effect”.

Question: And the “effect on DHT-induced UGT1A1 expression” value ([3]; GW0742 20 µM + DHT 10 nM)?
Answer: The value was “significant inhibitory effect”.

Question: What about the “effect on rosiglitazone-induced ANGPTL4 expression” value ([13]; GW0742 20 µM + rosiglitazone 5 µM) of the same molecule?
Answer: Its value is “unaffected; also recorded: inconclusive”.

Question: What about the “effect on T3-mediated down-regulation of BTG2” value ([14]; GW0742 20 µM + T3 10 nM) of the same molecule?
Answer: The value was “reversed”.

Question: And the “effect on 1,25(OH)2D3-induced IGFBP-3 expression” value [1, 24]?
Answer: Its value is “selectively inhibited”.

Question: And the “effect on 1,25(OH)2D3-induced TRPV6 expression” value [1, 24]?
Answer: Its value is “selectively inhibited”.

Question: And the “effect on 1,25(OH)2D3-induced CYP24A1 expression” value ([1]; only at 6 hours and 50 µM GW0742 + 1,25(OH)2D3 10 nM)?
Answer: Its value is “significant inhibition”.

Question: What about the “concentration with significant HL-60 cell death” value [15] of the same molecule?
Answer: The value was 150 µM.

Question: What about the “inhibition of VDR–SRC2–3 interaction at 100 mM ME in comparison with 1 mM ME” value [16] of the same molecule?
Answer: The value was “not influenced”.

Question: And the “antagonistic activity ERα” value [17]?
Answer: The value was “Antagonistic activity”.

Question: What about the “antagonistic activity GR” value [18] of the same molecule?
Answer: The value was “Antagonistic activity”.

Question: What about the “antagonistic activity PPARγ” value [19] of the same molecule?
Answer: The value was “Antagonistic activity”.

Question: And the “antagonistic activity RxR” value [20]?
Answer: The value was “Antagonistic activity”.

Question: And the “antagonistic activity TRβ” value [21]?
Answer: The value was “Antagonistic activity”.

Question: And the ANGPTL4 activation [22]?
Answer: Its ANGPTL4 activation is “activation”.

Question: And the cell death [23]?
Answer: The cell death was 18%.

Question: With `CN(CCOc1ccc(CC2SC(=O)NC2=O)cc1)c1ccccn1` (centres unmarked) [Rosiglitazone] as the molecule, how does the ANGPTL4 expression ([13]; rosiglitazone 5 µM) read?
Answer: Its ANGPTL4 expression is “induced”.

Question: With `N[C@@H](Cc1cc(I)c(Oc2ccc(O)c(I)c2)c(I)c1)C(=O)O` [T3, triiodothyronine] as the molecule, how does the BTG2 expression ([14]; T3 10 nM) read?
Answer: Its BTG2 expression is “down-regulated”.
